Experimental findings from publication PMC10520499, “Next step in the development of mesoprogestins: the preclinical profile of EC313” (Frontiers in Endocrinology, 2023) are described below.

Assay [1] has as its system adrenalectomized male Wistar rats. Put plainly: Thymus-Involution-Test in adrenalectomized rats. Format: in vivo, rat. The following applies: doses up to 100 mg/animal/day s.c., 4 days. The procedure: The standard Thymus-Involution-Test in rats was used. […] On day 5 the animals were sacrificed, and the thymus and spleen weights were determined. Reduced weight of the thymus indicated glucocorticoid activity. Stopping the dexamethasone-induced thymus reduction by the test compound indicated anti-glucocorticoid activity.

Assay [2] deals with T1, GR (Homo sapiens, UniProt P04150).
T1 sequence (P04150 1-777): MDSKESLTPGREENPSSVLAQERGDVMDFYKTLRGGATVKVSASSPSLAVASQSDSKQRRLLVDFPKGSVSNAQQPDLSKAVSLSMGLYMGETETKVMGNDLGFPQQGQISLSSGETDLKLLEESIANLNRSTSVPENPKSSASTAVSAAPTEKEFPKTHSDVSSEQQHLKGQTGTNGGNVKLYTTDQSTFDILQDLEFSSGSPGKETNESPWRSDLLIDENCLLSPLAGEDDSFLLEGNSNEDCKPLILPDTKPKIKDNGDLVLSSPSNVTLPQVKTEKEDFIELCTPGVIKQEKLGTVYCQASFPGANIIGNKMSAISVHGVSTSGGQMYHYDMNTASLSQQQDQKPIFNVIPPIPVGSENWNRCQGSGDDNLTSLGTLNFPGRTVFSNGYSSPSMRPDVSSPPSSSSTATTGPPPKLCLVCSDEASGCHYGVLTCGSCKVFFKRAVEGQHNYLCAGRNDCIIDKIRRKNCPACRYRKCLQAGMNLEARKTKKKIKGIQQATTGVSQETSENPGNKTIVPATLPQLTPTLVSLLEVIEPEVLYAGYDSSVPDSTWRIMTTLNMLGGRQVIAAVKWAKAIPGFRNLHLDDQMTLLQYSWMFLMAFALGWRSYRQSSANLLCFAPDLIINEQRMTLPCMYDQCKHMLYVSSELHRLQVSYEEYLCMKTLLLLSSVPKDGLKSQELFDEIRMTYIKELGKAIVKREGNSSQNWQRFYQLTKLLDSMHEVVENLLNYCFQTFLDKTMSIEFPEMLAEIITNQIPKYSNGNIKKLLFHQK
The experiment in a line: GR transactivation (HELA, MMTV-LUC). Format: cell-based. More on the design: HELA cells line carrying endogenous glucocorticoid protein; endogenous in cells; host or cells: HELA, stably transfected with the reporter only. Here is the method: HELA cells line carrying endogenous glucocorticoid protein were cultured in order to study gene expression on the transcriptional level under the influence of the tested compounds. The cells were transfected with reporter vector MMTV/LUC. To produce high protein overexpression, stable transfection was carried out. […] Agonist and antagonist properties of EC313 toward tested receptor GR were analyzed using luminescence detection.
In order to develop the transfection assay, plasmids were generated and isolated. Vector pGL4.36 coding the glucocorticoid receptor responsive element MMTV and firefly luciferase reporter vector [luc2P/Hygro] were used as a reporter system (pGL4.36-MMTV/LUC). The cells were transfected with reporter vector MMTV/LUC.
stable transfection with reporter vector was performed on a 6-well plate (0.5x10^6 cells per well) in culture medium (EMEM, 10% FBS, NEAA, sodium […], L-glutamine). Briefly, according to the transfection procedure, cells were passaged, and they grew in a culture medium containing an appropriate concentration of the antibiotic (Hygromycin 150 µg/mL). Resistance to Hygromycin gene, which had been transfected together with the reporter vector to the cells, only allowed positively transfected cells to grow in this medium. Therefore, growing cell clones were selected for further steps as stable transfectants.
After 24h incubation of cells with the tested compounds, luciferase activity was measured using VICTOR™ X Multilabel Plate Reader -Perkin Elmer.

As to `C[C@]12C[C@H](c3ccc(-c4ccoc4)cc3)C3=C4CCC(=O)C=C4CC[C@H]3[C@@H]1CC[C@]21OCCC1=C(F)F` [EC313], the “glucocorticoid / anti-glucocorticoid activity (thymus weight)” value in assay [1] is on record as “neither glucocorticoid nor anti-glucocorticoid activities”. Also, the “activity on GR in transactivation” value in assay [2] is recorded as “weak inhibitor”. Moreover, in assay [2] (comparative transactivation profile, read-out: Potency, GR Antagonism), the IC50 is 100 nM.
